Laboratory results published in US12115178B2, “Acylated active agents and methods of their use for the treatment of autoimmune disorders” (Flagship Pioneering Innovations V, Inc., priority 2018, dated 2024).

Experiments:
Format in all cases: in vitro ADME
[1] = Assay 3. In vitro Colonic Material Stability Assay; conditions: colonic material slurry, anaerobic, 1 or 10 μM
Protocol: Assay 3. In vitro Colonic Material Stability Assay. This assay was used to assess the stability of an acylated active agent in a large intestine. All experiments were performed in an anaerobic chamber containing 90% nitrogen, 5% hydrogen and 5% carbon dioxide. Colonic material was resuspended as a slurry (15% w/v final concentration) in pre-reduced, anaerobically sterilized dilution blanks (Anaerobe Systems AS-908). The colonic material was then inoculated into 96 well plates containing YCFAC media (Anaerobe Systems AS-680) or other suitable media (6.7 μL slurry into 1 mL total media). Compounds or groups of compounds were added to each individual well to reach a final analyte concentration of 1 or 10 μM, and the material was mixed by pipetting. Sample was removed after set timepoints (0, 120, 240, 480, 1440, 2880 minutes after initiation of the assay), quenched with acetonitrile containing internal standard, and analyzed by LC/MS.

[2] = Assay 1. Stability in Simulated Gastric Fluid (SGF)
How it was run: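 Compound at 1 μM final (from 1 mM DMSO stock) incubated at 37° C in SGF: NaCl medium at pH 1.6 with FaSSIF powder and 0.1 mg/mL pepsin, prepared fresh. Aliquots taken at T0 and regular intervals, quenched with equal volume acetonitrile; LC/MS gives degradation rate.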

[3] = Assay 2. Stability in Simulated Intestinal Fluid (SIF); conditions: SIF pH 6.7 with pancreatin, 1 μM, 37° C.
How it was run: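 Compounds at 1 µM (from 1 mM DMSO stock) were incubated at 37 °C with agitation in simulated intestinal fluid: FaSSIF in pH 6.7 phosphate buffer with pancreatin. Aliquots taken from T0 onward were quenched with acetonitrile and analyzed by LC/MS for degradation rate.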

[4] = SGF pH 1.6 with pepsin, 1 μM, 37° C.

Row | SMILES | Assay 3 (% Remaining at 24 h) [1] | Assay 1 (SGF) (% Remaining @ 1 hour) [2, 4] | Assay 2 (SIF) (% @ Remaining 4 hours) [3] | Assay 1 (SGF) (% Remaining @ 1 hour) ([2]; Run 1, SGF) | Assay 1 (SGF) (% Remaining @ 1 hour) ([2]; Run 2, SGF)
1 | CCCC(=O)O[C@@H]1[C@@H](OC(=O)CCC)[C@H](Oc2ccc(N)cc2C(=O)O)OC[C@H]1OC(=O)CCC [Compound 19, 5-amino-2-[(2S,3R,4S,5R)-3,4,5-tri(butanoyloxy)tetrahydropyran-2-yl]oxy-benzoic acid] | B (25-75% of the tested compound remaining) | C (>75% of the tested compound remaining) | B (25-75% of the tested compound remaining) | – | –
2 | CCCC(=O)O[C@H]1[C@@H](Oc2ccc(N)cc2C(=O)O)OC[C@@H](OC(=O)CCC)[C@H]1OC(=O)CCC [Compound 21, 5-amino-2-(((2R,3R,4R,5R)-3,4,5-tris(butyryloxy)tetrahydro-2H-pyran-2-yl)oxy)benzoic acid] | B (25-75% of the tested compound remaining) | C (>75% of the tested compound remaining) | C (>75% of the tested compound remaining) | – | –
3 | CCCC(=O)O[C@@H]1[C@@H](OC(=O)CCC)[C@@H](Oc2ccc(N)cc2C(=O)O)OC[C@@H]1OC(=O)CCC [Compound 22, 5-amino-2-[(2R,3R,4S,5S)-3,4,5-tri(butanoyloxy)tetrahydropyran-2-yl]oxy-benzoic acid] | B (25-75% of the tested compound remaining) | C (>75% of the tested compound remaining) | B (25-75% of the tested compound remaining) | – | –
4 | CCCC(=O)O[C@@H]1[C@@H](OC(=O)CCC)[C@H](C)O[C@@H](Oc2ccc(N)cc2C(=O)O)[C@@H]1OC(=O)CCC [Compound 39, 5-amino-2-(((2S,3R,4R,5S,6S)-3,4,5-tris(butyryloxy)-6-methyltetrahydro-2H-pyran-2-yl)oxy)benzoic acid] | C (>75% of the tested compound remaining) | C (>75% of the tested compound remaining) | B (25-75% of the tested compound remaining) | – | –
5 | CCCC(=O)O[C@@H]1[C@@H](OC(=O)CCC)[C@H](C)O[C@@H](Oc2ccccc2C(=O)O)[C@@H]1OC(=O)CCC [Compound 40, 2-(((2S,3R,4R,5S,6S)-3,4,5-tris(butyryloxy)-6-methyltetrahydro-2H-pyran-2-yl)oxy)benzoic acid] | C (>75% of the tested compound remaining) | C (>75% of the tested compound remaining) | C (>75% of the tested compound remaining) | – | –
6 | CCC(=O)O[C@H]1O[C@H](C(=O)O)[C@@H](OC(=O)CC)[C@H](OC(=O)CC)[C@H]1OC(=O)CC [Compound 46, (2S,3S,4S,5R,6R)-3,4,5,6-tetrakis(propanoyloxy)oxane-2-carboxylic acid] | A (<25% of the tested compound remaining) | C (>75% of the tested compound remaining) | A (<25% of the tested compound remaining) | – | –
7 | CCC(=O)O[C@@H]1O[C@H](C(=O)O)[C@@H](OC(=O)CC)[C@H](OC(=O)CC)[C@H]1OC(=O)CC [Compound 47, (2S,3S,4S,5R,6S)-3,4,5,6-tetrakis(propanoyloxy)oxane-2-carboxylic acid] | A (<25% of the tested compound remaining) | C (>75% of the tested compound remaining) | A (<25% of the tested compound remaining) | – | –
8 | O=C(CCc1c[nH]c2ccccc12)O[C@@H]1O[C@H](C(=O)O)[C@@H](OC(=O)CCc2c[nH]c3ccccc23)[C@H](OC(=O)CCc2c[nH]c3ccccc23)[C@H]1OC(=O)CCc1c[nH]c2ccccc12 [Compound 49, (2S,3S,4S,5R,6S)-3,4,5,6-tetrakis({[3-(1H-indol-3-yl)propanoyl]oxy})oxane-2-carboxylic acid] | A (<25% of the tested compound remaining) | – | A (<25% of the tested compound remaining) | B (25-75% of the tested compound remaining) | C (>75% of the tested compound remaining)
9 | CCCC(=O)O[C@H]1[C@H](OC)OC[C@@H](OC(=O)CCC)[C@H]1OC(=O)CCC [Compound 50, (2R,3R,4R,5R)-3,5-bis(butanoyloxy)-2-methoxyoxan-4-yl butanoate] | A (<25% of the tested compound remaining) | C (>75% of the tested compound remaining) | A (<25% of the tested compound remaining) | – | –
10 | CCC(=O)O[C@H]1[C@H](OC)OC[C@@H](OC(=O)CC)[C@H]1OC(=O)CC [Compound 51, (2R,3R,4R,5R)-2-methoxy-3,5-bis(propanoyloxy)oxan-4-yl propanoate] | B (25-75% of the tested compound remaining) | C (>75% of the tested compound remaining) | C (>75% of the tested compound remaining) | – | –
11 | CCCC(=O)O[C@@H]1[C@@H](OC(=O)CCC)[C@@H](OC)OC[C@@H]1OC(=O)CCC [Compound 52, (2S,3R,4S,5S)-3,5-bis(butanoyloxy)-2-methoxyoxan-4-yl butanoate] | B (25-75% of the tested compound remaining) | B (25-75% of the tested compound remaining) | B (25-75% of the tested compound remaining) | – | –
12 | CCC(=O)O[C@@H]1[C@@H](OC(=O)CC)[C@@H](OC)OC[C@@H]1OC(=O)CC [Compound 53, (2S,3R,4S,5S)-2-methoxy-3,5-bis(propanoyloxy)oxan-4-yl propanoate] | C (>75% of the tested compound remaining) | C (>75% of the tested compound remaining) | B (25-75% of the tested compound remaining) | – | –
13 | CCC(=O)OC[C@H]1O[C@H](OC)[C@H](OC(=O)CC)[C@@H](OC(=O)CC)[C@@H]1OC(=O)CC [Compound 55, [(2R,3R,4S,5R,6S)-6-methoxy-3,4,5-tris(propanoyloxy)oxan-2-yl]methyl propanoate] | A (<25% of the tested compound remaining) | C (>75% of the tested compound remaining) | A (<25% of the tested compound remaining) | – | –
14 | CCC(=O)O[C@@H]1[C@@H](OC(=O)CC)[C@H](OC(=O)/C=C/c2c[nH]c3ccccc23)OC[C@@H]1OC(=O)CC [Compound 100, (2S,3R,4S,5S)-3,4,5-tris(propanoyloxy)oxan-2-yl (2E)-3-(1H-indol-3-yl)prop-2-enoate] | A (<25% of the tested compound remaining) | B (25-75% of the tested compound remaining) | – | – | –
